Where “and” joins values, the source holds several entries; their conditions need not be identical. Identical values can stand only once. Toxic doses and inconclusive results are not listed.
Tested on: CD2F1 mice, L1210 leukemia ip, survival T/C
Assay: NCI In Vivo Anticancer Drug Screen. Data for tumor model L1210 Leukemia (intraperitoneal) in CD2F1 (CDF1) mice
Conditions: higher = longer survival
Outline: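 Tumor-bearing mice (transplanted tumor) were split into treated and vehicle control groups, and the measured endpoint of each treated group was divided by that of its vehicle controls.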

[1] = endpoint: mean survival time, dose: 100.0 mg/kg/injection, schedule: Q04DX003 (ip), vehicle: saline with Tween-80
[2] = endpoint: mean survival time, dose: 200.0 mg/kg/injection, schedule: Q04DX003 (ip), vehicle: saline with Tween-80
[3] = endpoint: mean survival time, dose: 400.0 mg/kg/injection, schedule: Q04DX003 (ip), vehicle: saline with Tween-80
[4] = endpoint: mean survival time, dose: 12.5 mg/kg/injection, schedule: Q01DX009 (ip), vehicle: saline
[5] = endpoint: mean survival time, dose: 25.0 mg/kg/injection, schedule: Q01DX009 (ip), vehicle: saline
[6] = endpoint: mean survival time, dose: 75.0 mg/kg/injection, schedule: Q01DX001 (ip), vehicle: saline

COC1=CC(=O)C=C(OC(C)=O)C12Oc1c(Cl)c(C)c(Cl)c(O)c1C2=O (centres undefined)
T/C (endpoint: mean survival time, dose: 6.25 mg/kg/injection, schedule: Q04DX002 (ip), vehicle: saline with Tween-80): 105 % of control | T/C (endpoint: mean survival time, dose: 12.5 mg/kg/injection, schedule: Q04DX002 (ip), vehicle: saline with Tween-80): 98 % of control | T/C (endpoint: mean survival time, dose: 25.0 mg/kg/injection, schedule: Q04DX002 (ip), vehicle: saline with Tween-80): 102 % of control

O=c1[nH]c(=O)n2c3c1nnn3CC1OC2C(O)C1O (centres undefined)
T/C (endpoint: mean survival time, dose: 12.5 mg/kg/injection, schedule: Q01DX005 (ip), vehicle: water): 93 % of control | T/C (endpoint: mean survival time, dose: 25.0 mg/kg/injection, schedule: Q01DX005 (ip), vehicle: water): 93 % of control | T/C (endpoint: mean survival time, dose: 50.0 mg/kg/injection, schedule: Q01DX005 (ip), vehicle: water): 95 % of control | T/C (endpoint: mean survival time, dose: 100.0 mg/kg/injection, schedule: Q01DX005 (ip), vehicle: water): 89 % of control | T/C (endpoint: mean survival time, dose: 200.0 mg/kg/injection, schedule: Q01DX005 (ip), vehicle: water): 95 % of control

CCO
T/C (endpoint: mean survival time, dose: 50.0 mg/kg/injection, schedule: Q03HX024 (ip), vehicle: saline): 100 % of control | T/C (endpoint: mean survival time, dose: 100.0 mg/kg/injection, schedule: Q03HX024 (ip), vehicle: saline): 102 % of control | T/C (endpoint: mean survival time, dose: 125.0 mg/kg/injection, schedule: Q01DX009 (ip), vehicle: saline): 103 % of control | T/C (endpoint: mean survival time, dose: 200.0 mg/kg/injection, schedule: Q03HX024 (ip), vehicle: saline): 97 % of control | T/C (endpoint: mean survival time, dose: 250.0 mg/kg/injection, schedule: Q01DX009 (ip), vehicle: saline): 100 % of control | T/C (endpoint: mean survival time, dose: 400.0 mg/kg/injection, schedule: Q03HX024 (ip), vehicle: saline): 102 % of control | T/C (endpoint: mean survival time, dose: 500.0 mg/kg/injection, schedule: Q01DX001 (ip), vehicle: saline): 109 % of control | T/C (endpoint: mean survival time, dose: 500.0 mg/kg/injection, schedule: Q01DX009 (ip), vehicle: saline): 105 % of control | T/C (endpoint: mean survival time, dose: 1000.0 mg/kg/injection, schedule: Q01DX001 (ip), vehicle: saline): 108 % of control | T/C (endpoint: mean survival time, dose: 1000.0 mg/kg/injection, schedule: Q01DX009 (ip), vehicle: saline): 103 % of control | T/C (endpoint: mean survival time, dose: 2000.0 mg/kg/injection, schedule: Q01DX001 (ip), vehicle: saline): 103 % of control | T/C (endpoint: mean survival time, dose: 4000.0 mg/kg/injection, schedule: Q01DX001 (ip), vehicle: saline): 111 % of control

O=C(O)c1cc([N+](=O)[O-])cc([N+](=O)[O-])c1
T/C [1]: 97 % of control | T/C [2]: 97 % of control | T/C [3]: 101 % of control

CCCCCCCCCCCC(=O)CCCCC
T/C (endpoint: mean survival time, dose: 100.0 mg/kg/injection, schedule: Q04DX003 (ip), vehicle: other): 96 % of control | T/C (endpoint: mean survival time, dose: 200.0 mg/kg/injection, schedule: Q04DX003 (ip), vehicle: other): 97 % of control | T/C (endpoint: mean survival time, dose: 400.0 mg/kg/injection, schedule: Q04DX003 (ip), vehicle: other): 97 % of control

C=C1C(O)C2(O)OCC34C(CC5C(C)=CC(=O)C(O)C5(C)C23)OC(=O)C(OC(=O)C(C)(O)CC)C14 (centres undefined)
T/C (endpoint: mean survival time, dose: 0.25 mg/kg/injection, schedule: Q01DX009 (ip), vehicle: saline + alcohol): 98 % of control | T/C (endpoint: mean survival time, dose: 0.5 mg/kg/injection, schedule: Q01DX009 (ip), vehicle: saline + alcohol): 100 % of control | T/C (endpoint: mean survival time, dose: 1.0 mg/kg/injection, schedule: Q01DX009 (ip), vehicle: saline + alcohol): 102 % of control | T/C (endpoint: mean survival time, dose: 2.0 mg/kg/injection, schedule: Q01DX009 (ip), vehicle: saline + alcohol): 90 % of control

c1ccc(CCc2ccccc2)cc1
T/C (endpoint: mean survival time, dose: 25.0 mg/kg/injection, schedule: Q04DX003 (ip), vehicle: saline with Tween-80): 100 % of control | T/C (endpoint: mean survival time, dose: 50.0 mg/kg/injection, schedule: Q04DX003 (ip), vehicle: saline with Tween-80): 103 % of control | T/C (endpoint: mean survival time, dose: 100.0 mg/kg/injection, schedule: Q01DX001 (ip), vehicle: saline with Tween-80): 100 % of control | T/C [1]: 104 % of control and 105 % of control | T/C (endpoint: mean survival time, dose: 200.0 mg/kg/injection, schedule: Q01DX001 (ip), vehicle: saline with Tween-80): 103 % of control | T/C [2]: 101 % of control | T/C (endpoint: mean survival time, dose: 400.0 mg/kg/injection, schedule: Q01DX001 (ip), vehicle: saline with Tween-80): 91 % of control | T/C [3]: 107 % of control

CN(C)CC(C)(C)C(=O)c1ccccc1
T/C (endpoint: mean survival time, dose: 100.0 mg/kg/injection, schedule: Q04DX002 (ip), vehicle: saline): 93 % of control

Cc1nc2c(N)nn(C)c2nc1C
T/C [1]: 95 % of control | T/C [2]: 101 % of control | T/C [3]: 101 % of control

CCOC(=O)C(CCP(=O)(OCC)OCC)NC(=O)c1ccc(N(C)Cc2cnc3nc(N)nc(N)c3n2)cc1 (centres undefined)
T/C (endpoint: median survival time, dose: 0.38 mg/kg/injection, schedule: Q01DX009 (ip), vehicle: saline): 101 % of control | T/C (endpoint: median survival time, dose: 0.75 mg/kg/injection, schedule: Q01DX009 (ip), vehicle: saline): 102 % of control | T/C (endpoint: median survival time, dose: 1.5 mg/kg/injection, schedule: Q01DX009 (ip), vehicle: saline): 102 % of control | T/C (endpoint: median survival time, dose: 3.0 mg/kg/injection, schedule: Q01DX009 (ip), vehicle: saline): 102 % of control | T/C (endpoint: median survival time, dose: 6.0 mg/kg/injection, schedule: Q01DX009 (ip), vehicle: saline): 101 % of control | T/C (endpoint: median survival time, dose: 12.0 mg/kg/injection, schedule: Q01DX009 (ip), vehicle: saline): 102 % of control

COc1ccccc1NC(=O)OCC#CCOC(=O)Nc1ccccc1OC
T/C (endpoint: mean survival time, dose: 100.0 mg/kg/injection, schedule: Q01DX009 (ip), vehicle: Klucel (hydroxypropylcellulose) (HPC)): 91 % of control | T/C (endpoint: mean survival time, dose: 200.0 mg/kg/injection, schedule: Q01DX009 (ip), vehicle: Klucel (hydroxypropylcellulose) (HPC)): 91 % of control | T/C (endpoint: mean survival time, dose: 400.0 mg/kg/injection, schedule: Q01DX009 (ip), vehicle: Klucel (hydroxypropylcellulose) (HPC)): 92 % of control

Nc1nc(N)c(-c2cccc(Cl)c2)c(CBr)n1
T/C (endpoint: mean survival time, dose: 6.25 mg/kg/injection, schedule: Q01DX009 (ip), vehicle: saline): 102 % of control | T/C [4]: 103 % of control | T/C [5]: 109 % of control

CN(C)Cc1cc(OCc2ccccc2)cc(CN(C)C)c1O
T/C [6]: 108 % of control

CCCCCCCCCC(C(=O)OCC)(C(=O)OCC)C1CCCC1
T/C (endpoint: mean survival time, dose: 100.0 mg/kg/injection, schedule: Q01DX001 (ip), vehicle: saline sonified): 106 % of control | T/C [1]: 100 % of control | T/C (endpoint: mean survival time, dose: 200.0 mg/kg/injection, schedule: Q01DX001 (ip), vehicle: saline sonified): 100 % of control | T/C [2]: 100 % of control | T/C (endpoint: mean survival time, dose: 400.0 mg/kg/injection, schedule: Q01DX001 (ip), vehicle: saline sonified): 90 % of control | T/C [3]: 97 % of control

C=C(C)C1(CC)C(=O)NC(=S)N(C)C1=O (centres undefined)
T/C [6]: 97 % of control | T/C (endpoint: mean survival time, dose: 150.0 mg/kg/injection, schedule: Q01DX001 (ip), vehicle: saline): 101 % of control | T/C (endpoint: mean survival time, dose: 300.0 mg/kg/injection, schedule: Q01DX001 (ip), vehicle: saline): 101 % of control

CCOC(=O)Nc1cc2c(c(N)n1)N=C(c1ccc(Cl)cc1)CN2
T/C (endpoint: mean survival time, dose: 3.0 mg/kg/injection, schedule: Q01DX009 (ip), vehicle: Klucel (hydroxypropylcellulose) (HPC)): 110 % of control | T/C (endpoint: mean survival time, dose: 6.0 mg/kg/injection, schedule: Q01DX009 (ip), vehicle: Klucel (hydroxypropylcellulose) (HPC)): 110 % of control | T/C (endpoint: mean survival time, dose: 12.0 mg/kg/injection, schedule: Q01DX009 (ip), vehicle: Klucel (hydroxypropylcellulose) (HPC)): 114 % of control | T/C (endpoint: mean survival time, dose: 12.5 mg/kg/injection, schedule: Q01DX001 (ip), vehicle: Klucel (hydroxypropylcellulose) (HPC)): 102 % of control | T/C (endpoint: mean survival time, dose: 25.0 mg/kg/injection, schedule: Q01DX001 (ip), vehicle: Klucel (hydroxypropylcellulose) (HPC)): 111 % of control | T/C (endpoint: mean survival time, dose: 25.0 mg/kg/injection, schedule: Q01DX009 (ip), vehicle: Klucel (hydroxypropylcellulose) (HPC)): 110 % of control | T/C (endpoint: mean survival time, dose: 50.0 mg/kg/injection, schedule: Q01DX001 (ip), vehicle: Klucel (hydroxypropylcellulose) (HPC)): 114 % of control | T/C (endpoint: mean survival time, dose: 100.0 mg/kg/injection, schedule: Q01DX001 (ip), vehicle: Klucel (hydroxypropylcellulose) (HPC)): 116 % of control

COc1cccc2c1C(=O)c1c(O)c3c(c(O)c1C2=O)C[C@@](O)(/C(C)=N\NC=O)C[C@@H]3OC1CC(N)C(O)C(C)O1 (some centres undefined)
T/C (endpoint: mean survival time, dose: 0.65 mg/kg/injection, schedule: Q01DX009 (ip), vehicle: saline): 113 % of control | T/C (endpoint: mean survival time, dose: 1.0 mg/kg/injection, schedule: Q01DX009 (ip), vehicle: saline): 106 % of control | T/C (endpoint: mean survival time, dose: 1.08 mg/kg/injection, schedule: Q01DX009 (ip), vehicle: saline): 118 % of control | T/C (endpoint: mean survival time, dose: 1.8 mg/kg/injection, schedule: Q01DX009 (ip), vehicle: saline): 114 % of control | T/C (endpoint: mean survival time, dose: 2.0 mg/kg/injection, schedule: Q01DX009 (ip), vehicle: saline): 124 % of control | T/C (endpoint: mean survival time, dose: 3.0 mg/kg/injection, schedule: Q04DX003 (ip), vehicle: saline): 123 % of control | T/C (endpoint: mean survival time, dose: 4.0 mg/kg/injection, schedule: Q01DX009 (ip), vehicle: saline): 123 % of control | T/C (endpoint: mean survival time, dose: 5.0 mg/kg/injection, schedule: Q04DX003 (ip), vehicle: saline): 120 % of control | T/C (endpoint: mean survival time, dose: 16.0 mg/kg/injection, schedule: Q01DX009 (ip), vehicle: saline): 161 % of control | T/C (endpoint: mean survival time, dose: 22.2 mg/kg/injection, schedule: Q04DX003 (ip), vehicle: saline): 176 % of control

CCOP(=O)(OCC)OC(C)C#N (centres undefined)
T/C [4]: 97 % of control | T/C [5]: 97 % of control

Reference: PubChem BioAssay AID256 (DTP/NCI, 2004)
